Measurements: patent US9914730B2, “Azaquinazoline inhibitors of Atypical protein Kinase C” (Ignyta, Inc., priority 2012, dated 2018)

biological target: T1, full-length human PKCι (Homo sapiens, UniProt P41743); assay: PKCι IC50 IMAP assay, full-length PKCι at 150 μM ATP; type: biochemical; conditions: read-out: IC50 in IMAP assay against full length PKCi at 150 μM ATP
T1 construct: Recombinant, full-length human PKCι expressed in Sf21 insect cells is also commercially available; purchased; host or cells: Sf21 insect cells
T1 sequence (P41743 1-596): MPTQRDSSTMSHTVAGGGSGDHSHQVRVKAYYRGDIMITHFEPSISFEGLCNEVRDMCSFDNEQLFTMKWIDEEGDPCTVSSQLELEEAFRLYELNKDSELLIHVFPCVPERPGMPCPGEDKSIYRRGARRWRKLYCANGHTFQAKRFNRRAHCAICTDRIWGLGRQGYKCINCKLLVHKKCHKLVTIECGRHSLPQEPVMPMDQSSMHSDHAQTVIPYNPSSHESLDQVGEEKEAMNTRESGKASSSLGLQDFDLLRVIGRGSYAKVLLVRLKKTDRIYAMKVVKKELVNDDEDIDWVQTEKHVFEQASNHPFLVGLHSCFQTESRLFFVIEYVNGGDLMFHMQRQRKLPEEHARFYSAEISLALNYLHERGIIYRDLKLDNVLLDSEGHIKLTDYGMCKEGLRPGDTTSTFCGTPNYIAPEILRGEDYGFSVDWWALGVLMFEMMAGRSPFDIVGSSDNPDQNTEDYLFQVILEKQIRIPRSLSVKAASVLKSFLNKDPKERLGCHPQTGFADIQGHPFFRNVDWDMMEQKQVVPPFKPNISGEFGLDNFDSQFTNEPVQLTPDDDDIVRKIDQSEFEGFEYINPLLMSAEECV
Outline: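 Dose-response IC50 values come from IMAP fluorescence polarisation after 60 min room-temperature turnover of 100 nM FAM peptide by ~15 pM insect-cell-expressed full-length PKCι at 150 μM ATP (5× KM^APP), normalised to no-compound and no-enzyme controls.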

Row | Compound | IC50 [nM]
1 | COc1ccc(F)c(Nc2cc(-c3nc(N4CCNCC4)c4c(C5CC5)cncc4n3)ccn2)c1Cl [Example 634, (2-Chloro-6-fluoro-3-methoxy-phenyl)-[4-(5-cyclopropyl-4-piperazin-1-yl-pyrido[3,4-d]pyrimidin-2-yl)-pyridin-2-yl]-amine] | < 100
2 | Fc1ccc(F)c(Nc2cc(-c3nc(N4CCNCC4)c4c(C5CC5)cncc4n3)ccn2)c1Cl [Example 635, (2-Chloro-3,6-difluoro-phenyl)-[4-(5-cyclopropyl-4-piperazin-1-yl-pyrido[3,4-d]pyrimidin-2-yl)-pyridin-2-yl]-amine] | < 100
3 | [2H]C1([2H])NC([2H])([2H])C([2H])([2H])N(c2nc(-c3ccnc(Nc4ccccc4)c3)nc3cncc(C4CC4)c23)C1([2H])[2H] [Example 636, {4-[5-Cyclopropyl-4-(2,2,3,3,5,5,6,6-octadeuterio-piperazin-1-yl)-pyrido[3,4-d]pyrimidin-2-yl]-pyridin-2-yl}-phenyl-amine] | < 100
4 | COc1cc(Nc2cc(-c3nc(N4CCNCC4)c4c(C5CC5)cncc4n3)ccn2)ccc1C1CC1 [Example 637, (4-Cyclopropyl-3-methoxy-phenyl)-[4-(5-cyclopropyl-4-piperazin-1-yl-pyrido[3,4-d]pyrimidin-2-yl)-pyridin-2-yl]-amine] | < 100
5 | NC(=O)N1CCN(c2nc(-c3ccnc(Nc4ccccc4)c3)nc3cncc(C4CC4)c23)CC1 [Example 638, 4-[5-Cyclopropyl-2-(2-phenylamino-pyridin-4-yl)-pyrido[3,4-d]pyrimidin-4-yl]-piperazine-1-carboxylic acidamide] | 100 to 1000
6 | O=C(Cc1c(F)cccc1F)Nc1cc(-c2nc(N3CCNCC3)c3c(C4CC4)cncc3n2)ccn1 [Example 639, N-[4-(5-Cyclopropyl-4-piperazin-1-yl-pyrido[3,4-d]pyrimidin-2-yl)-pyridin-2-yl]-2-(2,6-difluoro-phenyl)-acetamide] | < 100
7 | CCCc1ccc(F)c(Nc2cc(-c3nc(N4CCNCC4)c4c(C5CC5)cncc4n3)ccn2)c1 [Example 640, [4-(5-Cyclopropyl-4-piperazin-1-yl-pyrido[3,4-d]pyrimidin-2-yl)-pyridin-2-yl]-(2-fluoro-5-propyl-phenyl)-amine] | < 100
8 | Fc1cc(C2CC2)ccc1Nc1cc(-c2nc(N3CCNCC3)c3c(C4CC4)cncc3n2)ccn1 [Example 641, (4-Cyclopropyl-2-fluoro-phenyl)-[4-(5-cyclopropyl-4-piperazin-1-yl-pyrido[3,4-d]pyrimidin-2-yl)-pyridin-2-yl]-amine] | < 100
9 | Fc1cccc(F)c1Nc1cc(-c2nc(N3CCNC(CC(F)(F)F)C3)c3c(C4CC4)cncc3n2)ccn1 (stereo not shown) [Example 642, (4-{5-Cyclopropyl-4-[3-(2,2,2-trifluoro-ethyl)-piperazin-1-yl]-pyrido[3,4-d]pyrimidin-2-yl}-pyridin-2-yl)-(2,6-difluoro-phenyl)-amine] | 100 to 1000
10 | FC(F)(F)CC1CN(c2nc(-c3ccnc(Nc4ccccc4)c3)nc3cncc(C4CC4)c23)CCN1 (stereo not shown) [Example 643, [4-{5-Cyclopropyl-4-[3-(2,2,2-trifluoro-ethyl)-piperazin-1-yl]-pyrido[3,4-d]pyrimidin-2-yl}-pyridin-2-yl)-phenyl-amine] | 1000 to 10000
11 | C[C@@H](Nc1cc(-c2nc(N3CCNCC3)c3c(C4CC4)cncc3n2)ccn1)c1cccc(F)c1 [Example 644, [4-(5-Cyclopropyl-4-piperazin-1-yl-pyrido[3,4-d]pyrimidin-2-yl)-pyridin-2-yl]-[(R)-1-(3-fluoro-phenyl)-ethyl]-amine] | < 100
12 | N#Cc1ccc(Nc2cc(-c3nc(N4CCNCC4)c4c(C5CC5)cncc4n3)ccn2)cc1 [Example 645, 4-[4-(5 Cyclopropyl-4-piperazin-1-yl-pyrido[3,4-d]pyrimidin-2-yl)-pyridin-2-ylamino]-benzonitrile] | < 100
13 | FC(F)(F)c1cccc(Nc2cc(-c3nc(N4CCNCC4)c4c(C5CC5)cncc4n3)ccn2)c1 [Example 646, [4-(5-Cyclopropyl-4-piperazin-1-yl-pyrido[3,4-d]pyrimidin-2-yl)-pyridin-2-yl]-(3-trifluoromethyl-phenyl)-amine] | < 100
14 | Fc1cc(F)c(Nc2cc(-c3nc(N4CCNCC4)c4c(C5CC5)cncc4n3)ccn2)c(F)c1 [Example 650, [4-(5-Cyclopropyl-4-piperazin-1-yl-pyrido[3,4-d]pyrimidin-2-yl)-pyridin-2-yl]-(2,4,6-trifluoro-phenyl)-amine] | < 100
15 | Fc1ccc(Nc2cc(-c3nc(N4CCNCC4)c4c(C5CC5)cncc4n3)ccn2)c(F)c1 [Example 651, [4-(5-Cyclopropyl-4-piperazin-1-yl-pyrido[3,4-d]pyrimidin-2-yl)-pyridin-2-yl]-(2,4-difluoro-phenyl)-amine] | < 100
16 | C[C@@H](Nc1cc(-c2nc(N3CCNCC3)c3c(C4CC4)cncc3n2)ccn1)c1ccc(F)cc1 [Example 652] | < 100
17 | C[C@@H](Nc1cc(-c2nc(N3CCNCC3)c3c(C4CC4)cncc3n2)ccn1)c1c(F)cccc1F [Example 653, [4-(5-Cyclopropyl-4-piperazin-1-yl-pyrido[3,4-d]pyrimidin-2-yl)-pyridin-2-yl]-[(R)-1-(2,6-difluoro-phenyl)-ethyl]-amine] | < 100
18 | Fc1cnc(Nc2ccccc2)cc1-c1nc(N2CCNCC2)c2c(C3CC3)cncc2n1 [Example 654, [4-(5-Cyclopropyl-4-piperazin-1-yl-pyrido[3,4-d]pyrimidin-2-yl)-5-fluoro-pyridin-2-yl]-phenyl-amine] | < 100

The next lines start with the values.

Row | IC50 [nM] | Compound
19 | 1000 to 10000 | CC(C)NC(=O)C1CCN(c2nc(-c3ccnc(Nc4c(F)cccc4F)c3)nc3cncc(C4CC4)c23)CC1 [Example 655, 1-{5-Cyclopropyl-2-[2-(2,6-difluoro-phenylamino)-pyridin-4-yl]-pyrido[3,4-d]pyrimidin-4-yl}-piperidine-4-carboxylic acid isopropylamide]
20 | 100 to 1000 | NC(=O)C1CCN(c2nc(-c3ccnc(Nc4c(F)cccc4F)c3)nc3cncc(C4CC4)c23)CC1 [Example 656, 1-{5-Cyclopropyl-2-[2-(2,6-difluoro-phenylamino)-pyridin-4-yl]-pyrido[3,4-d]pyrimidin-4-yl}-piperidine-4-carboxylic acid amide]
21 | 100 to 1000 | CC(=O)NC1CCN(c2nc(-c3ccnc(Nc4c(F)cccc4F)c3)nc3cncc(C4CC4)c23)CC1 [Example 657, N-(1-{5-Cyclopropyl-2-[2-(2,6-difluoro-phenylamino)-pyridin-4-yl]-pyrido[3,4-d]pyrimidin-4-yl}-piperidin-4-yl)-acetamide]
22 | 1000 to 10000 | O=C(NCCF)C1CCN(c2nc(-c3ccnc(Nc4c(F)cccc4F)c3)nc3cncc(C4CC4)c23)CC1 [Example 658, 1-{5-Cyclopropyl-2-[2-(2,6-difluoro-phenylamino)-pyridin-4-yl]-pyrido[3,4-d]pyrimidin-4-yl}-piperidine-4-carboxylic acid (2-fluoro-ethyl)-amide]
23 | 100 to 1000 | CC(=O)Nc1cc(-c2nc(N3CCN[C@H](C(F)(F)F)C3)c3c(C4CC4)cncc3n2)ccn1 [Example 659, N-{4-[5-Cyclopropyl-4-((S)-3-trifluoromethyl-piperazin-1-yl)-pyrido[3,4-d]pyrimidin-2-yl]-pyridin-2-yl}-acetamide]
24 | 10000 to 40000 | FC(F)(F)[C@H]1CN(c2nc(-c3ccnc(Cl)c3)nc3cncc(C4CC4)c23)CCN1 [Example 660, 2-(2-Chloro-pyridin-4-yl)-5-cyclopropyl-4-((R)-3-trifluoromethyl-piperazin-1-yl)-pyrido[3,4-d]pyrimidine]
25 | 1000 to 10000 | COCCN1CCN(c2nc(-c3ccnc(Nc4ccccc4)c3)nc3cncc(C4CC4)c23)CC1 [Example 661, (4-{5-Cyclopropyl-4-[4-(2-methoxy-ethyl)-piperazin-1-yl]-pyrido[3,4-d]pyrimidin-2-yl}-pyridin-2-yl)-phenyl-amine]
26 | 1000 to 10000 | COCCN1CCN(c2nc(-c3ccnc(Nc4ccc(F)cc4)c3)nc3cncc(C4CC4)c23)CC1 [Example 662, (4-{5-Cyclopropyl-4-[4-(2-methoxy-ethyl]-piperazin-1-yl]-pyrido[3,4-d]pyrimidin-2-yl}-pyridin-2-yl)-(4-fluoro-phenyl)-amine]
27 | 100 to 1000 | CS(=O)(=O)CCN1CCN(c2nc(-c3ccnc(Nc4ccccc4)c3)nc3cncc(C4CC4)c23)CC1 [Example 663, (4-{5-Cyclopropyl-4-[4-(2-methanesulfonyl-ethyl)-piperazin-1-yl]-pyrido[3,4-d]pyrimidin-2-yl}-pyridin-2-yl)-phenyl-amine]
28 | 1000 to 10000 | CS(=O)(=O)CCN1CCN(c2nc(-c3ccnc(Nc4ccc(F)cc4)c3)nc3cncc(C4CC4)c23)CC1 [Example 664, (4-{5-Cyclopropyl-4-[4-(2-methanesulfonyl-ethyl)-piperazin-1-yl]-pyrido[3,4-d]pyrimidin-2-yl}-pyridin-2-yl)-(4-fluoro-phenyl)-amine]
